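Tested at 5 concentrations; 48 h exposure; 96-well plates; endpoints linearly interpolated, else capped at highest concentration. GI50 is the concentration that inhibits growth by half. TGI is the concentration that stops growth completely.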

Some test systems named below: A549 NSCLC; HS 578T breast; NCI-H460 lung; SF-295 CNS; SK-MEL-2 melanoma; SN12C renal; SNB-75 CNS; SW-620 colon; UACC-62 melanoma; HOP-62 NSCLC.
Holding throughout (test): growth of human tumour cells (NCI), 48 h

In the case of `C=C(CC[C@@H](C(=O)O)[C@H]1[C@H](O)C[C@@]2(C)C3=CC[C@@H](C(=C)C)[C@](C)(CCC(=O)O)C3=CC[C@]12C)C(C)C`, the TGI came to 35.1 µM in the experiment on A549 NSCLC; 42.2 µM with HS 578T breast; 34.7 µM in the experiment with NCI-H460 lung; 31.4 µM in the experiment with SF-295 CNS; 34.3 µM in the experiment on SK-MEL-2 melanoma; 31.9 µM in the experiment with SN12C renal. Further, the TGI in the experiment on SNB-75 CNS amounted to 36.5 µM; with SW-620 colon, 55.5 µM; with UACC-62 melanoma it was 29.1 µM.
For `OC1(c2cc3ccccc3s2)CCCCC1`, the TGI with A549 NSCLC was more than 100 µM; in the experiment on HOP-62 NSCLC, more than 100 µM; with HS 578T breast, 87.5 µM; with NCI-H460 lung it was more than 100 µM; in the experiment on SF-295 CNS it was more than 100 µM; in the experiment with SN12C renal, more than 100 µM. Further, the TGI in the experiment on SNB-75 CNS, with SW-620 colon and in the experiment with UACC-62 melanoma was more than 100 µM in each case.
As to `[N-]=[N+]=NCc1cccc(Nc2cc(=O)[nH]c(=O)[nH]2)c1`, the TGI in the experiment with A549 NSCLC, with HOP-62 NSCLC, in the experiment on HS 578T breast, in the experiment with SF-295 CNS, in the experiment on SK-MEL-2 melanoma and in the experiment on SN12C renal was more than 100 µM each time. Moreover, the TGI with SNB-75 CNS, in the experiment on SW-620 colon and in the experiment on UACC-62 melanoma was more than 100 µM each time.
As to `Cc1cccc(NC(=O)C(=O)C(C(=O)c2ccccc2F)C2OC(=O)c3ccccc32)c1Cl` (configuration not stated), the TGI in the experiment with A549 NSCLC, in the experiment with HOP-62 NSCLC, in the experiment on NCI-H460 lung, in the experiment on SF-295 CNS, in the experiment on SK-MEL-2 melanoma and with SN12C renal was more than 100 µM throughout. Also, the TGI is 64.2 µM in the experiment with SNB-75 CNS, more than 100 µM in the experiment on SW-620 colon and 85.4 µM in the experiment on UACC-62 melanoma.
On to `COc1ccc(N=N/C(=N/NC(=O)c2ccccc2)c2ccc(N(CCC#N)CCC#N)cc2C)cc1`, for which the TGI is more than 100 µM in the experiment with A549 NSCLC; more than 100 µM in the experiment with HOP-62 NSCLC; 75.2 µM in the experiment on HS 578T breast; more than 100 µM with NCI-H460 lung; more than 100 µM in the experiment on SF-295 CNS; more than 100 µM with SK-MEL-2 melanoma. Also, the TGI in the experiment with SN12C renal, in the experiment with SNB-75 CNS and in the experiment on UACC-62 melanoma was more than 100 µM in each case.
As for `CCOc1nc(-c2ccccc2)cc(-c2ccc(N3CCOCC3)cc2)c1C#N`, the TGI with A549 NSCLC, in the experiment on HOP-62 NSCLC, in the experiment on HS 578T breast, in the experiment with NCI-H460 lung, with SF-295 CNS and in the experiment on SK-MEL-2 melanoma was more than 100 µM in each case. Also, the TGI with SN12C renal, in the experiment on SNB-75 CNS and in the experiment on SW-620 colon was more than 100 µM each time.
Turning to `C1CCC(OC2CSC2)OC1` (configuration not stated), the TGI with A549 NSCLC, in the experiment with HS 578T breast, in the experiment on NCI-H460 lung, in the experiment with SF-295 CNS, in the experiment on SN12C renal and in the experiment on SNB-75 CNS was more than 100 µM in each case. This compound also came in with a TGI in the experiment with SW-620 colon of more than 100 µM.
For `CC(CO)C1C[C@H](O)[C@@]2(C)CC(=O)C=C(CO)[C@@H]2C1` (some centres not stated), the TGI with A549 NSCLC, in the experiment on HOP-62 NSCLC, with NCI-H460 lung, with SF-295 CNS, in the experiment on SK-MEL-2 melanoma and in the experiment on SN12C renal was more than 100 µM throughout. Further, the TGI in the experiment on SNB-75 CNS, with SW-620 colon and in the experiment with UACC-62 melanoma was more than 100 µM each time.
Take `COP(=O)(OC)C(Cc1c[nH]c2ccccc12)NC(=O)OCc1ccccc1` (configuration not stated): the TGI in the experiment on A549 NSCLC, in the experiment on HOP-62 NSCLC, with HS 578T breast, with NCI-H460 lung, with SF-295 CNS and with SK-MEL-2 melanoma was more than 100 µM throughout. Further, the TGI in the experiment on SN12C renal, in the experiment with SNB-75 CNS and in the experiment with SW-620 colon was more than 100 µM throughout.
Turning to `O=c1cc(N2CCCC2)[nH]c(=O)n1-c1cccc(C(F)(F)F)c1`, the TGI with HOP-62 NSCLC, with HS 578T breast, with NCI-H460 lung, with SF-295 CNS, in the experiment with SK-MEL-2 melanoma and in the experiment with SN12C renal was more than 100 µM throughout. For the same compound, the TGI in the experiment with SNB-75 CNS, in the experiment with SW-620 colon and in the experiment with UACC-62 melanoma was more than 100 µM throughout.
As for `O=[Se](=O)c1ccccc1.O=[Se](=O)c1ccccc1.[Cu]`, the GI50 in the experiment with A549 NSCLC is 26 µM; in the experiment with HOP-62 NSCLC it was 26 µM; in the experiment with NCI-H460 lung, 8 µM; with SF-295 CNS, 16 µM; in the experiment with SK-MEL-2 melanoma, 18.8 µM; in the experiment on SN12C renal, 15.8 µM. Further, the GI50 in the experiment on SNB-75 CNS was 22 µM; with SW-620 colon it was 17.5 µM; in the experiment on UACC-62 melanoma, 6.82 µM. The TGI in the experiment on A549 NSCLC worked out at 52.2 µM; in the experiment with HOP-62 NSCLC it was 43.4 µM; in the experiment on NCI-H460 lung, 20 µM; with SF-295 CNS, 29.8 µM; in the experiment with SK-MEL-2 melanoma, 33.5 µM; with SN12C renal, 29.5 µM. For the same compound, the TGI turned out to be 37.6 µM with SNB-75 CNS, 33.8 µM in the experiment with SW-620 colon and 18.9 µM with UACC-62 melanoma.
With `CCCCc1ccc(Nc2ncc3[nH]cnc3n2)cc1`, the TGI came to 53.2 µM in the experiment with A549 NSCLC; 37.2 µM with HOP-62 NSCLC; 33.9 µM in the experiment with HS 578T breast; 38 µM with SF-295 CNS; 53.3 µM with SK-MEL-2 melanoma; 48.9 µM in the experiment with SN12C renal. The TGI worked out at 35.5 µM with SNB-75 CNS, 42.6 µM with SW-620 colon and 49.6 µM in the experiment with UACC-62 melanoma.
Take `O=C1/C(=C/c2ccccc2[N+](=O)[O-])N=C(c2ccccc2)N1C1Nc2cc3c(cc2S1)NC(N1C(=O)/C(=C/c2ccccc2[N+](=O)[O-])N=C1c1ccccc1)S3` (configuration not stated): the TGI in the experiment with A549 NSCLC, with HOP-62 NSCLC, in the experiment with HS 578T breast, in the experiment on NCI-H460 lung, with SF-295 CNS and in the experiment on SK-MEL-2 melanoma was more than 100 µM each time. The TGI in the experiment with SNB-75 CNS and in the experiment with SW-620 colon was more than 100 µM in each case.
With `COc1cccc(/C=N/[N-]C(N)=O)c1[O-].[Ni+2].[OH3+].c1cnc2c(c1)ccc1cccnc12`, the TGI in the experiment with A549 NSCLC, in the experiment on HOP-62 NSCLC, in the experiment with NCI-H460 lung, with SF-295 CNS, with SK-MEL-2 melanoma and in the experiment on SN12C renal was more than 100 µM in each case. In addition, the TGI in the experiment on SNB-75 CNS, in the experiment on SW-620 colon and with UACC-62 melanoma was more than 100 µM in each case.
